Measured values reported in US20250161313A1, “A METHOD FOR THE TREATMENT OF NEUROPATHY” (INSTITUT NATIONAL DE LA SANTÉ ET DE LA RECHERCHE MÉDICALE, priority 2022, published 2025).

How the values were obtained:
C57B16/J mice [1] = assay: Mechanical pain sensitivity (von Frey filaments) in sub-chronic cisplatin model; assay type: in vivo; details: KW-6002 3 mg/kg i.p. daily day -5 to day 7; cisplatin 3 mg/kg i.p. for 6 days; vs. cisplatin; FIG. 1A
Experimental: (§1) Animal experiments were adapted from 63-64. Animal procedures were performed in 8 to 10 weeks old male C57B16/J mice (Janvier Labs except for pain experiments, Jackson lab). Mice were fed a laboratory standard diet with water and food ad libitum and were kept under constant environmental conditions with a 12-hour light-dark cycle. Istradefylline (KW-6002; Tocris) was dissolved in a carrier solution consisting in 15% DMSO, 15% cremophor (Sigma), 70% saline solution (vehicle). Cisplatin (Accord Healthcare) was dissolved in saline solution. Neuropathy resulting from of sub-chronic cisplatin was evaluated following six daily i.p. injections of cisplatin (3 mg/kg) starting at day 0 and mice were sacrificed 72h after the last injection of cisplatin (day 8). KW-6002 was administered daily i.p. from day −5 to day 7 (FIG. 2).
(§2) Mechanical pain sensitivity, a classical read out for CIPN in rodents, was assessed using von Frey filaments as previously described (65-66). Briefly, mice were placed in opaque boxes (10×10×10 cm). After a 30 min habituation period, von Frey filaments were applied, and the paw withdrawal threshold was calculated using the “up & down” method. Behavioral testing was performed by experimenter blinded to treatment and genotype.

C57B16/J mice [2] = assay: Mechanical sensitivity (von Frey hairs) in mEERL tumor-bearing mice; assay type: in vivo; details: cisplatin plus KW6002 vs. cisplatin, FIG. 3D
Experimental: (§3) We used a validated murine model of HPV+ oropharyngeal squamous cell carcinoma as previously described (noncommercial) (80). This model consists of oropharyngeal epithelial cells from C57Bl/6 male mice that stably express the HPV16 viral oncogenes E6 and E7, H-Ras, and luciferase (mEERL cells). mEERL cells were grown in a T75 flask until confluent, after which cells were trypsinized and harvested, washed 3 times with sterile PBS, and resuspended in 1 mL sterile PBS to the appropriate concentration. Mice were injected s.c. into the right flank with 20 μL solution containing either 1,000,000 mEERL cells or PBS (vehicle). The day of mEERL cell injection is indicated as day −14. Tumor volume was monitored using Vernier digital calipers. When the tumor volume reached 100 mm3, the mice were randomly ascribed to 1 of the 3 experimental groups (vehicle; cisplatin; or cisplatin plus KW6002).
as §2

[3] = system: Il6, Tnf, Il1b and Ccl2 expression in DRG and spinal cord; assay: mRNA levels of cytokines in spinal cord and DRG (quantitative RT-PCR), sub-chronic cisplatin model; assay type: in vivo, mice; details: 8 days after start of cisplatin treatment, vs. cisplatin
Experimental: as §1
Lumbar dorsal root ganglion (DRG) and spinal cord tissues were quickly dissected and snap-frozen in liquid nitrogen.
For DRG and spinal cord tissues, total RNA was extracted with phenol/chloroform and subsequently precipitated in isopropanol as described previously (71).
(§4) Reverse transcription was performed on 1 μg of RNA using high-capacity cDNA reverse transcription kit (Thermo Fisher), according the manufacturer's recommendation. Real time PCR was performed on a StepOne device using Taqman Gene Expression Master Mix (Thermo Fisher), following manufacturer's recommendations. Expression levels of the following genes were evaluated using comparative CT method (2-deltaCT): Tumor Necrosis Factor alpha (Tnfa, Assay ID Mm00443258_m1), Interleukin-6 (Il6, Assay ID Mm00446190_m1), Il1b (assay ID Mm00434228_m1); chemokine (C-C motif) ligand 2 (Ccl2, assay ID Mm00441242_m1). Transcript levels of PPIA (Mm02342430_m1) were used as endogenous control.

[4] = system: KIM-1, Tnf and Il6 expression; assay: Cisplatin-induced nephrotoxicity markers (mRNA) in mEERL tumor-bearing mice; assay type: in vivo; details: cisplatin plus KW6002 vs. cisplatin
Experimental: as §3, §4

mEERL cells = assay: Tumor size in mEERL syngeneic in vivo tumor model; details: mEERL tumor-bearing mice; cisplatin plus KW6002 vs. cisplatin; FIG. 3E
Experimental: as §3

SMILES: CCn1c(=O)c2c(nc(/C=C/c3ccc(OC)c(OC)c3)n2C)n(CC)c1=O [KW-6002, 8-[(E)-2-(3,4-dimethoxyphenyl)vinyl]-1,3-diethyl-7-methyl-3,7-dihydro-1H-purine-2,6-dione]
- cisplatin-induced pain hypersensitivity (mechanical sensitivity, von Frey) (C57B16/J mice [1]): significantly mitigated pain hypersensitivity
- cisplatin-induced pain hypersensitivity (von Frey) (C57B16/J mice [2]): alleviated
- Tnf mRNA level in spinal cord ([3]; KW-6002 3 mg/kg, FIG. 1C): significantly downregulated
- Il6 mRNA level in DRG ([3]; KW-6002 3 mg/kg, FIG. 1D): significantly downregulated
- Tnf mRNA level in DRG ([3]; KW-6002 3 mg/kg, FIG. 1E): significantly downregulated
- Il 1b mRNA level in DRG ([3]; FIG. 1F): significantly reversed the upregulation
- Ccl2 mRNA level in DRG ([3]; FIG. 1G): significantly reversed the upregulation
- indicator of renal toxicity KIM-1 (mRNA) induced by cisplatin ([4]; FIG. 3A): limited
- expression of inflammatory cytokine Tnf induced by cisplatin ([4]; FIG. 3B): limited
- expression of inflammatory cytokine Il6 induced by cisplatin ([4]; FIG. 3C): limited
- tumor control by cisplatin (absolute tumor size) (mEERL cells): significantly potentiated
